Tests used:
[1] = system: ethanol-responsive essential tremor; experiment: Five-patient open-label trial of sodium oxybate, blinded WHIGET tremor rating (patients #4, 5); format: in vivo, human; conditions: for WHIGET TOTAL SUSTENTION score: range 0-6; for Rx effect, WHIGET TOTAL ACTION (improvement in tremor): listed as sodium oxybate, monosodium salt
Source text: Five patients were enrolled in a trial from the Movement Disorders Division of Columbia University Medical Center during the fall of 2004. All patients were afflicted with hyperkinetic movement disorders that responded to ethanol (defined as a noticeable change to the patient), and all were refractory to treatment with conventional medications or could not tolerate them. The Medical Center's Institutional Review Board approved the trial, and written and verbal informed consent were obtained from all patients prior to enrollment.
The dose and timing of all other drugs were kept constant throughout the trial, and patients were not withdrawn from other medications. Patients #1-3 were examined and videotaped using the Unified Myoclonus Rating Scale (UMRS), and patients #4 and 5 were examined and videotaped using the Washington Heights Inwood Tremor Rating Scale (WHIGET) (see Appendix I). Frucht S. J., et al. Adv Neurol 89:361-76 (2002); Louis, E. D., et al. Mov Disord 16:89-93 (2001).
Side effects were defined as either minor or serious (leading to hospitalization) using good clinical practice standards (www.who.int/medicines/library/par/ggcp/GCPGuidePharmatrials), and patients were asked to report side effects at each visit. After initial examination and videotaping, patients were given 1 gm of sodium oxybate by mouth (2 ml of the standard 0.5 gm/ml solution dissolved in 60 ml of water). One hour later, the senior author repeated the examination and videotaping. […] After two weeks taking 2 gm twice daily, the procedure was repeated after a 3 gm office dose, and finally two weeks after receiving 3 gm twice daily, the procedure was repeated after a 4 gm office dose. The maximum dose allowed in the trial was 4 gm twice daily. Patients and the senior author determined at each visit whether or not to proceed to the next dose level, based principally on their ability to tolerate the most recent dose regimen. After deciding on a maximum tolerated dose, patients received a dose in the office 0.5 gm less and the examination was videotaped.
The entire videotape segments and patient-writing samples from each visit were copied, and were blinded to trial order and identifying features, and were randomly ordered for review using a random number table. A movement disorder expert blinded to trial design and dose schedule, scored each videotape. Sub-scores for each visit were calculated as described previously. Frucht S. J., et al. Adv Neurol 89:361-76 (2002). We modified section 5 of the UMRS in which functional performance (pouring water, using a soup spoon) is performed only with the dominant arm (section V). […] This increased the maximum score of section 5 of the UMRS from 20 to 28.

[2] = system: medication-refractory, ethanol-responsive ET; experiment: Twenty-patient open-label trial of sodium oxybate, blinded WHIGET (ET patients); format: in vivo, human; conditions: for Kinetic tremor score: dose 0 score 15.4; for Postural tremor score: dose 0 score 2.4
Source text: Twenty patients age 18 or older were recruited from a clinical practice at the Movement Disorders Division of Columbia University Medical Center. Eligible patients with medication-refractory, ethanol-responsive myoclonus (6 PHM, 3 MD, 2 PME) or ET (9 patients) (Table 1) were offered enrollment from February 2004 to March 2005. The medical center's institutional review board approved the protocol, and written informed consent was obtained from all participants. All had myoclonus or ET that improved (by self-report) with ingestion of ethanol. All patients were medication-refractory, defined as obtaining inadequate benefit from best medical treatment or being unable to tolerate treatment. The dose and timing of other medications were kept constant before and during the trial.
(§1) Twelve men and 8 women enrolled. Results from patients #6, and #s 1, 2, 7, 12, and 13 were reported previously. Frucht, S. J., et al. Mov Disord 20:745-51 (2005); Frucht, S. J., et al. Mov Disord 20:1330-7 (2005). Mean age/symptom duration was 43.9 yrs/12.3 yrs (myoclonus) and 71.2 yrs/26.7 yrs (ET). Patients with myoclonus were examined and videotaped at each visit using the Unified Myoclonus Rating Scale (UMRS), and patients with ET were examined and videotaped using the modified Washington Heights Inwood Genetic Essential Tremor Rating Scale (WHIGET; Appendix 1). Frucht, S. J., et al. Mov Disord 20:1330-7 (2005). After initial baseline examination and videotaping, patients took 1 gm of sodium oxybate by mouth (2 ml of the standard 0.5 gm/ml solution dissolved in 60 ml of water), and one hour later the videotaped examination was repeated. Patients were maintained on a dose of 1 gm T.I.D. (taken before meals) until their next office visit two weeks later, when the examination and videotaping were repeated one hour after receiving 1.5 gm of sodium oxybate. Subsequent visits and dose titrations at two-week intervals were repeated until the maximum dose was reached (3 gm T.I.D), patients were satisfied with the results of treatment, or until they developed side effects that they viewed as troublesome. Dosing for patients #1, 2, 6, 7, 12, and 13 was slightly different (1 gm BID, with dose increments of 2 gm to maximum dose of 4 gm BID), but office visits and videotaping protocol were otherwise identical.
The entire videotape segments and writing samples from each visit were copied and randomly ordered, and identifying features that might reveal trial order or drug dose were removed. A blinded movement disorder neurologist scored each videotape segment using the UMRS or the WHIGET. Sub-scores for each visit were calculated as described previously. Frucht, S. J., et al. Mov Disord 20:1330-7 (2005). Based on data from the first two ET cases, and assuming alpha=0.05, power=80%, and a 25% reduction in post-treatment tremor severity, we calculated that eight ET cases were required. A similar number of myoclonus patients would provide >80% power to detect a 25% reduction in the severity of post-treatment action myoclonus. Paired t tests were performed for scores pre- and post-treatment.

[3] = Twenty-patient trial: side effects and tolerability; format: in vivo, human; conditions: twenty patients
Source text: as §1

NREM and REM sleep = conditions: about 30-60 mg/kg doses, healthy human volunteers; cited from earlier work
[4] = system: alcohol-responsive myoclonus with dystonia; conditions: single patient, recently reported; cited from earlier work

## O=C([O-])CCCO.[Na+] [GHB, 4-hydroxybutanoic acid monosodium salt]
[1]; patient 4, 1 gm, range 0-40, 0 gm score 19.5
  WHIGET TOTAL ACTION score: 10
[1]; patient 4, 1.5 gm, 0 gm score 2.5
  WHIGET TOTAL SUSTENTION score: 0.5
[1]; patient 4, 1.5 gm, range 0-40, 0 gm score 19.5
  WHIGET TOTAL ACTION score: 4
[1]; patient 4, 2 gm, 0 gm score 2.5
  WHIGET TOTAL SUSTENTION score: 0
[1]; patient 4, 2 gm, range 0-40, 0 gm score 19.5
  WHIGET TOTAL ACTION score: 5
[1]; patient 4
  Rx effect, WHIGET TOTAL ACTION (improvement in tremor): 79%
[1]; patient 5, 1 gm, 0 gm score 23
  WHIGET TOTAL ACTION score: 19
[1]; patient 5, 1.5 gm, 0 gm score 23
  WHIGET TOTAL ACTION score: 13.5
[1]; patient 5, 1.5 gm, 0 gm score 4
  WHIGET TOTAL SUSTENTION score: 2.5
[1]; patient 5, 2 gm, 0 gm score 23
  WHIGET TOTAL ACTION score: 12
[1]; patient 5, 2 gm, 0 gm score 4
  WHIGET TOTAL SUSTENTION score: 3
[1]; patient 5
  Rx effect, WHIGET TOTAL ACTION (improvement in tremor): 48%
[1]; patient #4, 1 gm twice-daily dose, before: moderate
  Blinded rating of the severity of torticollis: mild
[1]; patient #4, after 2 gm
  kinetic tremor amplitude: markedly diminished
[1]; patient #5, after 2 gm
  kinetic tremor amplitude: the amplitude has diminished
[2]; 1 gm, p 0.011*
  Kinetic tremor score: 11.5 (0.011)*
[2]; 1 gm, p 0.029*
  Postural tremor score: 1.7 (0.029)*
[2]; 1.5 gm, p 0.001**
  Postural tremor score: 1.1 (0.001)**
[2]; 1.5 gm, p 0.006**
  Kinetic tremor score: 8.8 (0.006)**
[2]; 2 gm, p 0.006**
  Postural tremor score: 1.4 (0.006)**
  Kinetic tremor score: 9.1 (0.006)**
[2]; ET, postural and kinetic tremor scores
  dose of maximal improvement: 1.5 gm
[2]; patient #15 (ET), after 1.5 gm
  time at which improvement in action tremor during pouring was evident: 45 min
  time at which improvement in action tremor during pouring was obvious: 60 min
[2]; patient #17 (ET), FIG. 4
  kinetic tremor during tasks (drawing, sipping water from spoon): Improvement in kinetic tremor during tasks was evident
[3]
  dose titration limited by ataxia: 20%
  dose titration limited by sedation: 60%
  mild, transient side effect: dizziness: 35%
  mild, transient side effect: emotionality: 20%
  mild, transient side effect: headache: 20%
  mild, transient side effect: nausea: 10%
  tolerability of daytime dosing: acceptable
NREM and REM sleep
  duration of normal sequence of NREM and REM sleep: 2 to 3 h
[4]
  effect on myoclonus: improved myoclonus

— patent US20090137565A1, “Method for treatment of movement disorders” (The Trustees of Columbia University in the City of New York, priority 2004, published 2009)
